Drawing on PubChem BioAssay (NCI), this text covers TGI and GI50 for 22 compounds.

Test systems include OVCAR-8 ovarian; UACC-62 melanoma; CAKI-1 renal; SF-539 CNS; NCI-H460 lung; LOX IMVI melanoma; EKVX NSCLC; HCT-116 colon; IGROV1 ovarian; T-47D breast.
Assay in all cases: growth of human tumour cells (NCI), 48 h

Values after ≈ are worked out from the molar mass of the structure shown. Values joined by “and” are separate entries in the source; they are usually repeats but may differ in a detail not shown here. Identical values can stand only once.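 Cells were grown in 96-well plates and exposed to each compound for 48 hours at five concentrations; endpoints were interpolated linearly between bracketing concentrations, or set to the highest concentration if not reached. Abbreviation: GI50, concentration required for 50% inhibition of growth. TGI: concentration producing complete growth inhibition.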 A value given as a limit tells only on which side of the number the result lay.

In the case of `CCOC(=O)C1CCn2c(nc3c2c(=O)n(C)c(=O)n3C)S1` (stereo unspecified), the TGI in the experiment with OVCAR-8 ovarian, with UACC-62 melanoma, in the experiment on CAKI-1 renal, with SF-539 CNS, in the experiment on NCI-H460 lung and with LOX IMVI melanoma was over 100 µM throughout. The TGI with EKVX NSCLC, with HCT-116 colon and in the experiment with IGROV1 ovarian was over 100 µM each time.

As for `COC(=O)C1C(O)CCC2CN3CCc4c([nH]c5cccc(OC)c45)C3CC21` (stereo unspecified), the TGI in the experiment on OVCAR-8 ovarian, in the experiment on UACC-62 melanoma, in the experiment on CAKI-1 renal, in the experiment with T-47D breast, in the experiment on SF-539 CNS and with NCI-H460 lung was over 100 µM throughout. The TGI in the experiment on LOX IMVI melanoma, in the experiment on EKVX NSCLC, in the experiment on HCT-116 colon and with IGROV1 ovarian was over 100 µM throughout.

Consider `O=C(CCN1CC2CCC(CC2)C1)c1cccs1`, for which the TGI worked out at 42.4 µM with OVCAR-8 ovarian; 31.9 µM in the experiment on UACC-62 melanoma; 34.5 µM in the experiment with CAKI-1 renal; 24.1 µM in the experiment with T-47D breast; 39.2 µM in the experiment with SF-539 CNS; 37.5 µM in the experiment with NCI-H460 lung. Besides, the TGI with LOX IMVI melanoma worked out at 27.7 µM; in the experiment with EKVX NSCLC it was 42.6 µM; in the experiment with HCT-116 colon it was 42 µM; with IGROV1 ovarian it was 25.8 µM.

On to `N#CC(c1ccccc1)N1CCCN(C(C#N)c2ccccc2)C1c1ccccc1O` (stereo unspecified), for which the TGI in the experiment with OVCAR-8 ovarian, with UACC-62 melanoma, with CAKI-1 renal, in the experiment with T-47D breast, with SF-539 CNS and with NCI-H460 lung was over 100 µM throughout. For the same compound, the TGI in the experiment with LOX IMVI melanoma, with EKVX NSCLC, with HCT-116 colon and in the experiment on IGROV1 ovarian was over 100 µM throughout.

`CC1(C)CC(=O)C2=C(C1)NC(SSC1=C(C#N)C(c3ccc(F)cc3)C3=C(CC(C)(C)CC3=O)N1)=C(C#N)C2c1ccc(F)cc1` (stereo unspecified): the GI50 is 28.8 µg/mL (≈ 44 µM) with OVCAR-8 ovarian; 23.7 µg/mL (≈ 36.2 µM) with UACC-62 melanoma; 29.5 µg/mL (≈ 45 µM) in the experiment with CAKI-1 renal; 15 µg/mL (≈ 22.9 µM) in the experiment with T-47D breast; 23.4 µg/mL (≈ 35.8 µM) in the experiment on SF-539 CNS; 47.8 µg/mL (≈ 73 µM) in the experiment with NCI-H460 lung. Moreover, the GI50 in the experiment with LOX IMVI melanoma is 30.5 µg/mL (≈ 46.5 µM); with EKVX NSCLC, 35.5 µg/mL; with HCT-116 colon it was 26.5 µg/mL; in the experiment on IGROV1 ovarian, 15 µg/mL. In addition, the TGI in the experiment on OVCAR-8 ovarian is 49.9 µg/mL; with UACC-62 melanoma it was 43.9 µg/mL; in the experiment on CAKI-1 renal, 50.7 µg/mL; in the experiment with T-47D breast, 15 µg/mL; in the experiment with SF-539 CNS it was 43.5 µg/mL; in the experiment on NCI-H460 lung, over 150 µg/mL. Moreover, the TGI in the experiment with LOX IMVI melanoma stood at 63.3 µg/mL; with EKVX NSCLC it was 78.5 µg/mL; with HCT-116 colon, 47.3 µg/mL; in the experiment with IGROV1 ovarian, 15 µg/mL.

Consider `C[C@]12CCC(=O)C=C1CC[C@@H]1[C@@H]2[C@@H](O)C[C@@]2(C)[C@H]1CC[C@]2(O)C(=O)CO`, for which the TGI in the experiment on OVCAR-8 ovarian, with UACC-62 melanoma, in the experiment on CAKI-1 renal, in the experiment with T-47D breast, in the experiment on SF-539 CNS and with NCI-H460 lung was over 100 µM in each case. Moreover, the TGI with LOX IMVI melanoma, with EKVX NSCLC, in the experiment on HCT-116 colon and with IGROV1 ovarian was over 100 µM each time.

On to `CC(=O)N(C)c1ccc2c(ccc[n+]2[O-])c1[N+](=O)[O-]`, for which the TGI with OVCAR-8 ovarian, in the experiment on UACC-62 melanoma, in the experiment with CAKI-1 renal, in the experiment with SF-539 CNS, in the experiment with NCI-H460 lung and in the experiment on LOX IMVI melanoma was over 100 µM each time. The TGI in the experiment with EKVX NSCLC, in the experiment on HCT-116 colon and with IGROV1 ovarian was over 100 µM throughout.

`Nc1nc(N)c2c(n1)NC(c1ccccc1)CC(/C=C/c1ccc(Cl)cc1)=N2` (stereo unspecified): the TGI in the experiment with OVCAR-8 ovarian turned out to be 37.2 µM; in the experiment with UACC-62 melanoma, 25 µM; in the experiment with CAKI-1 renal, 26.4 µM; in the experiment with T-47D breast, 30.8 µM; with SF-539 CNS, 31.2 µM; in the experiment on NCI-H460 lung it was 18 µM. For the same compound, the TGI is 13.4 µM in the experiment on LOX IMVI melanoma, 17.3 µM with EKVX NSCLC, 4.76 µM in the experiment with HCT-116 colon and 7.67 µM with IGROV1 ovarian.

Turning to `O=[n+]1c2c(n([O-])c3ccccc31)-c1cccc3cccc-2c13`, the TGI in the experiment on OVCAR-8 ovarian, in the experiment on T-47D breast, with NCI-H460 lung, in the experiment on LOX IMVI melanoma and in the experiment with HCT-116 colon was over 100 µM throughout.

As for `CC1(C)CCC2(C(=O)OC3OC(CO)C(O)C(O)C3O)CCC3(C)C(=CCC4C5(C)CCC(OC6OC(CO)C(O)C(O)C6O)C(C)(C)C5CCC43C)C2C1` (stereo unspecified), the TGI in the experiment with OVCAR-8 ovarian was over 25 µM; with UACC-62 melanoma it was over 25 µM; with CAKI-1 renal, over 25 µM; in the experiment on T-47D breast, 24.3 µM; in the experiment with SF-539 CNS, 12.8 µM; in the experiment on NCI-H460 lung, over 25 µM. For the same compound, the TGI with LOX IMVI melanoma was 8.51 µM; in the experiment with EKVX NSCLC, over 25 µM; in the experiment on HCT-116 colon it was over 25 µM; with IGROV1 ovarian, over 25 µM.

Take `COc1ccc(/C=C(\C#N)c2nc(N)nc(N3N=C(C)CC3(C)C)n2)c(O)c1`: the TGI in the experiment with OVCAR-8 ovarian was over 100 µM; in the experiment with UACC-62 melanoma, 34.6 µM; in the experiment on CAKI-1 renal, 38.1 µM; with T-47D breast, 34.5 µM; in the experiment with SF-539 CNS, 29.1 µM; in the experiment with NCI-H460 lung, 38.2 µM. Moreover, the TGI is 47.9 µM in the experiment with EKVX NSCLC, 31.4 µM in the experiment on HCT-116 colon and 56.4 µM in the experiment on IGROV1 ovarian.

Turning to `[O-][N+](CCO)(CCO)c1ncnc2nc[nH]c12`, the TGI with OVCAR-8 ovarian, with UACC-62 melanoma, in the experiment on CAKI-1 renal, with T-47D breast, with LOX IMVI melanoma and with EKVX NSCLC was over 100 µM each time. Further, the TGI in the experiment on HCT-116 colon and with IGROV1 ovarian was over 100 µM throughout.

Regarding `COC(=O)C1C(C)N1C` (stereo unspecified), the TGI in the experiment with OVCAR-8 ovarian, in the experiment with UACC-62 melanoma, in the experiment on SF-539 CNS, with NCI-H460 lung, in the experiment with LOX IMVI melanoma and in the experiment on EKVX NSCLC was over 100 µM in each case. This compound also displayed a TGI in the experiment on IGROV1 ovarian of over 100 µM.

As for `O=S1(=O)OC(c2ccc(O)cc2)(c2ccc(O)cc2)c2ccccc21`, the TGI in the experiment with OVCAR-8 ovarian, in the experiment on UACC-62 melanoma, in the experiment with CAKI-1 renal, with T-47D breast, in the experiment on SF-539 CNS and in the experiment with NCI-H460 lung was over 100 µM throughout. In addition, the TGI in the experiment on LOX IMVI melanoma, in the experiment with EKVX NSCLC, in the experiment with HCT-116 colon and in the experiment with IGROV1 ovarian was over 100 µM in each case.

As for `CC(Sc1ccccc1)C(CO)(CO)[N+](=O)[O-]` (stereo unspecified), the TGI in the experiment with OVCAR-8 ovarian is 28.7 µM; in the experiment with UACC-62 melanoma, 29.9 µM; with CAKI-1 renal, 33.1 µM; with SF-539 CNS it was 31 µM; with NCI-H460 lung it was 50.7 µM; in the experiment on LOX IMVI melanoma, 28.2 µM. Moreover, the TGI is 34.1 µM with EKVX NSCLC, 31.6 µM with HCT-116 colon and 38 µM in the experiment with IGROV1 ovarian.

For `C[C@]12CC[C@@H]3c4ccccc4CC[C@H]3[C@@H]1CC[C@@H]2O`, the TGI in the experiment with OVCAR-8 ovarian, in the experiment on UACC-62 melanoma, in the experiment with SF-539 CNS, in the experiment on NCI-H460 lung, with LOX IMVI melanoma and in the experiment on EKVX NSCLC was over 100 µM each time. The TGI with HCT-116 colon and with IGROV1 ovarian was over 100 µM throughout.

On to `CC[C@@]1(O)C(=O)OCc2c1cc1n(c2=O)Cc2c-1nc1ccc(O)cc1c2CC[Si](C)(C)C`, for which the TGI in the experiment on OVCAR-8 ovarian was 0.197 µM; in the experiment on UACC-62 melanoma, 0.0172 µM and 0.0149 µM; with NCI-H460 lung, 0.00445 µM and 0.0117 µM; in the experiment with LOX IMVI melanoma, 0.114 µM; in the experiment on IGROV1 ovarian, 0.202 µM. For the same compound, in the experiment with EKVX NSCLC, the GI50 was 0.0181 µM.

Consider `Clc1ccc(Nc2nc(Cl)c3[nH]cnc3n2)cc1Cl`, for which the TGI in the experiment on OVCAR-8 ovarian is over 100 µM; in the experiment on UACC-62 melanoma it was over 100 µM; in the experiment with CAKI-1 renal, 16.6 µM; in the experiment with T-47D breast it was 80.4 µM; with NCI-H460 lung, 62.7 µM; with LOX IMVI melanoma it was 34.1 µM. For the same compound, the TGI in the experiment with EKVX NSCLC was 49.1 µM; in the experiment on HCT-116 colon, 86.7 µM; with IGROV1 ovarian, over 100 µM.

Regarding `Cc1cc(O)c(C(C)C)cc1CN1CCCCC1`, the TGI in the experiment on OVCAR-8 ovarian, with UACC-62 melanoma, in the experiment on CAKI-1 renal, in the experiment with T-47D breast, with SF-539 CNS and in the experiment with NCI-H460 lung was over 100 µM in each case. Besides, the TGI in the experiment on LOX IMVI melanoma, with EKVX NSCLC, with HCT-116 colon and with IGROV1 ovarian was over 100 µM in each case.

With `CC(=O)OC1CC(O)CC2=CCC3C4CCC(C(C)(O)C(O)CC5COC(=O)C5C)C4(C)CCC3C21C` (stereo unspecified), the TGI in the experiment with OVCAR-8 ovarian, in the experiment on UACC-62 melanoma, with CAKI-1 renal, in the experiment on T-47D breast, in the experiment on SF-539 CNS and with NCI-H460 lung was over 25 µM each time. Further, the TGI in the experiment on LOX IMVI melanoma, with EKVX NSCLC, in the experiment with HCT-116 colon and in the experiment with IGROV1 ovarian was over 25 µM throughout.

Consider `C/C(=N\NC(=O)c1cccnc1)c1cccc(/C(C)=N/NC(=O)c2cccnc2)n1`, for which the TGI in the experiment on OVCAR-8 ovarian is 19.3 µM; in the experiment on UACC-62 melanoma, 5.7 µM; in the experiment with SF-539 CNS, 13.6 µM; in the experiment on NCI-H460 lung it was 34.6 µM; with LOX IMVI melanoma, over 100 µM; with EKVX NSCLC, over 100 µM. The TGI is over 100 µM in the experiment with HCT-116 colon and 27.7 µM in the experiment with IGROV1 ovarian. In addition, the results for the GI50 in the experiment with HCT-116 colon and in the experiment on IGROV1 ovarian were 4.24 µM and 3.74 µM, respectively.

Turning to `Nc1ccc2c(c1)C(=O)N(O)C2=O`, the TGI with UACC-62 melanoma, in the experiment on SF-539 CNS, in the experiment with NCI-H460 lung, in the experiment with LOX IMVI melanoma, in the experiment with EKVX NSCLC and in the experiment with HCT-116 colon was over 100 µM in each case. This compound showed a TGI in the experiment on IGROV1 ovarian of over 100 µM.
